Test results: patent US6458828B1, “Deodorants, foods and beverages, and oral compositions as well as toiletry products” (Lotte Co., Ltd., priority 1999, dated 2002)

How the values were obtained:
[1] = Deodorizing activity by head-space method using gas chromatography (general statements)
Text: The resent inventors have researched on various materials to discover the effective deodorant in the head-space method using a gas chromatography.

[2] = Test 1 deodorizing effect test (head-space gas chromatography, pH 7.5); settings: reduction ratio of methylmercaptan vs sample-free system; sample 7.5 mg/ml, pH 7.5, 25 ppm sodium methylmercaptan, 30 minutes at 37° C.
Experimental: After 1.0 ml of the sample solution and 0.5 ml of 25 ppm sodium methylmercaptan was added in a vial to shake the same for 30 minutes at 37° C., and then 200 μl of a vapor phase component in the vial was gathered. An amount of formed methylmercaptan was measured by the gas chromatography to compare the same with a sample-free system, thereby to find a reduction ratio of methylmercaptan as a deodorizing coefficient. […] The gas chromatography uses “GC-9A” commercially available from Shimazu Manufacturing Co., Ltd. The measuring conditions were described below. [table]

[3] = Gas chromatography analysis of sulfides with caramels and maltols; settings: garlic and onion odor ingredients
Experimental: Also, in Japanese laid-open publication 62-169720, it is also disclosed that caramels and maltols (3-hydroxy-2-methyl-γ-pyrone) obtained from heating sucrose or glucose show deodorizing effect against garlic and onion odors. If, however, the odor composition was analyzed by a gas chromatography, then no change in odor composition was observed.

[4] = Test 3 deodorizing effect test against ammonia (Kitagawa detecting tube); settings: 50 mg sample in 1.96 ml water, 40 μl ammonia solution (0.28%), 5 minutes at 37° C.
Experimental: Each of 50 mg of the palatinose-derived thermal decomposition of Example 1 and sodium copper chlorophyllin was dissolved into 1.96 ml of water in 100 ml of the vial respectively. Then, 40 μl of an ammonia solution (0.28%) was added and shaken for 5 minutes at 37° C. and 100 ml of the vapor phase component in the vial was measured under a vacuum pressure by use of a Kitagawa detecting tube (ammonia No.3). The deodorizing rate of each sample was calculated from the concentration of ammonia in case of addition of no sample.

## OC[C@H]1O[C@H](OC[C@H]2OC(O)(CO)[C@@H](O)[C@@H]2O)[C@H](O)[C@@H](O)[C@@H]1O (some centres unmarked) [Palatinose, palatinose]
[1]
  deodorizing activity / effect against methyl mercaptan (in words): does not provide such the effect
[2]
  Deodorant coefficient (%): 0.0%

## OC[C@H]1O[C@@](CO)(O[C@H]2O[C@H](CO)[C@@H](O)[C@H](O)[C@H]2O)[C@@H](O)[C@@H]1O [Sucrose, sucrose]
[2]
  Deodorant coefficient (%): 0.0%

## Cc1occc(=O)c1O [maltols, 3-hydroxy-2-methyl-γ-pyrone]
[3]
  change in composition of sulfides (methyl marcaptan, allyl marcaptan) by gas chromatography: no change in the composition was observed

## sodium copper chlorophyllin
[4]
  Rate of deodorizing (%): 9.2%
